Measured values published in US20260191769A1, “DRUG ELUTING IMPLANTS AND USES THEREOF” (MUSC FOUNDATION FOR RESEARCH DEVELOPMENT, priority 2022, published 2026).
Read-outs that look alike come from different tables or passages of the source.

System: Methicillin-Resistant Staphylococcus aureus (MRSA)
Experiment: microbe, parasite or virus in culture
Procedure: At the prescribed time points, gels were removed and placed in active bacteria cultures for 24 hours. After 24 hours, the gels were removed and the bacteria zone of exclusion will be measured.
Briefly, Methicillin-Resistant Staphylococcus aureus (MRSA) was cultured in brain-heart infusion broth and diluted to match a 0.5 McFarland turbidity standard. The resulting culture was tested with gram stain to ensure the MRSA was present. After determining that the MRSA was indeed gram-positive and present, the MRSA was carefully spread onto 150 mm agar plates to inoculate the plates. 5 mcg and 30 mcg vancomycin loaded disks were placed on each agar plate as antibiotic controls. Six plates were run in this experiment, with three plates containing aliquots (from the eluates collected from the study of Example 1 Aim 1) with peroxide (FIG. 7A), while the other three plates contained aliquots run with collagenase & phosphate buffered saline (FIG. 7B).
Aliquots from days 3, 7, 14, 21, and 28 were run. 10 μL of each aliquot was pipetted onto filter paper and placed onto the agar plates. The agar plates were incubated for 24 hours at 37 degrees Celsius, and the zones of inhibition were measured the following morning.

SMILES: CN[C@H](CC(C)C)C(=O)N[C@H]1C(=O)N[C@@H](CC(N)=O)C(=O)N[C@H]2C(=O)N[C@H]3C(=O)N[C@H](C(=O)N[C@H](C(=O)O)c4cc(O)cc(O)c4-c4cc3ccc4O)[C@H](O)c3ccc(c(Cl)c3)Oc3cc2cc(c3O[C@@H]2O[C@H](CO)[C@@H](O)[C@H](O)[C@H]2O[C@H]2C[C@](C)(N)[C@H](O)[C@H](C)O2)Oc2ccc(cc2Cl)[C@H]1O [Vanc., vancomycin]
- zone of inhibition at 5 µg/disc (read-out: 5 mcg Vanc. zone of inhibition, average, 5 mcg vancomycin control disk, average of plates 1-3 (collagenase & phosphate buffered saline)): 1.33 mm
- zone of inhibition at 5 µg/disc (read-out: 5 mcg Vanc. zone of inhibition, average, 5 mcg vancomycin control disk, average of plates 4-6 (peroxide)): 1.33 mm
- zone of inhibition at 30 µg/disc (read-out: 30 mcg Vanc. zone of inhibition, average, 30 mcg vancomycin control disk, average of plates 1-3 (collagenase & phosphate buffered saline)): 4.67 mm
- zone of inhibition at 30 µg/disc (read-out: 30 mcg Vanc. zone of inhibition, average, 30 mcg vancomycin control disk, average of plates 4-6 (peroxide)): 4.33 mm
